ChEMBL document CHEMBL5724914, “Linking interpersonal differences in gut microbiota composition and drug biotransformation activity” (2024)

Tests used:
[1] = human gut metagenome, 24 h, 2 µM
[2] = human gut metagenome, 24 h, 2 µM; remark: listed apart in the source
[3] = (§1) The drug is tested on Z-019 corresponding to rat gut metagenome with ENA study accession number: PRJEB37062 and ENA sample accession number: ERS12561818 for biotransformation under anaerobic condition. The drug concentrations were measured over 9 timepoints collected between 0 and 24 hours of incubation by liquid-chromatography-coupled mass spectrometry (LC–MS); conditions: 2 µM
[4] = as §1, with “Z-023” for “Z-019”, “to” for “to rat gut”, “ERS12561822” for “ERS12561818”; conditions: 2 µM
[5] = as §1, with “on Z-013” for “on Z-019”, “to rabbit” for “to rat”, “number: ERS12561813” for “number: ERS12561818”; conditions: 2 µM
[6] = human gut metagenome, 24 h, 2 µM; remark: listed apart in the source
[7] = human gut metagenome, 24 h, 2 µM; remark: listed apart in the source
[8] = as §1, with “Z-014” for “Z-019”, “ERS12561814” for “ERS12561818”; conditions: 2 µM
[9] = human gut metagenome, 24 h, 2 µM; remark: listed apart in the source
[10] = as §1, with “on Z-028” for “on Z-019”, “to mouse” for “to rat”, “number: ERS12561827” for “number: ERS12561818”; conditions: 2 µM
[11] = as §1, with “on Z-030” for “on Z-019”, “to mouse” for “to rat”, “number: ERS12561829” for “number: ERS12561818”; conditions: 2 µM
[12] = as §1, with “on Z-016” for “on Z-019”, “to mouse” for “to rat”, “number: ERS12561815” for “number: ERS12561818”; conditions: 2 µM
[13] = as §1, with “on WLS-077” for “on Z-019”, “to human” for “to rat”, “number: ERS12561750” for “number: ERS12561818”; conditions: 2 µM
[14] = human gut metagenome, 24 h, 2 µM; remark: listed apart in the source
[15] = human gut metagenome, 24 h, 2 µM; remark: listed apart in the source
[16] = as §1, with “on WLS-007” for “on Z-019”, “to human” for “to rat”, “number: ERS12561742” for “number: ERS12561818”; conditions: 2 µM
[17] = as §1, with “on Z-011” for “on Z-019”, “to mouse” for “to rat”, “number: ERS12561811” for “number: ERS12561818”; conditions: 2 µM
[18] = as §1, with “on Z-020” for “on Z-019”, “to rabbit” for “to rat”, “number: ERS12561819” for “number: ERS12561818”; conditions: 2 µM
[19] = human gut metagenome, 24 h, 2 µM; remark: listed apart in the source
[20] = as §1, with “on WLS-098” for “on Z-019”, “to human” for “to rat”, “number: ERS12561754” for “number: ERS12561818”; conditions: 2 µM
Further: call rule not given here.

Bacterial Biotransformation [1] | Bacterial Biotransformation [2] | Bacterial Biotransformation [3] | Bacterial Biotransformation [4] | Bacterial Biotransformation [5] | Bacterial Biotransformation [6] | Bacterial Biotransformation [7] | Bacterial Biotransformation [8] | Bacterial Biotransformation [9] | Bacterial Biotransformation [10] | Bacterial Biotransformation [11] | Bacterial Biotransformation [12] | Bacterial Biotransformation [13] | Bacterial Biotransformation [14] | Bacterial Biotransformation [15] | Bacterial Biotransformation [16] | Bacterial Biotransformation [17] | Bacterial Biotransformation [18] | Bacterial Biotransformation [19] | Bacterial Biotransformation [20] | SMILES
Compound metabolized | Compound metabolized | Compound NOT metabolized | Compound NOT metabolized | Compound NOT metabolized | Compound metabolized | Compound metabolized | Compound NOT metabolized | Compound metabolized | Compound NOT metabolized | Compound NOT metabolized | Compound NOT metabolized | Compound metabolized | Compound NOT metabolized | Compound metabolized | Compound metabolized | Compound NOT metabolized | Compound metabolized | Compound metabolized | Compound metabolized | CCN(CC)CCNC(C(=O)OCCC(C)C)c1ccccc1.Cl.Cl (stereo not given)
Compound metabolized | Compound metabolized | Compound NOT metabolized | Compound metabolized | Compound NOT metabolized | Compound metabolized | Compound NOT metabolized | Compound NOT metabolized | Compound metabolized | Compound NOT metabolized | Compound NOT metabolized | Compound NOT metabolized | Compound NOT metabolized | Compound metabolized | Compound metabolized | Compound NOT metabolized | Compound NOT metabolized | Compound NOT metabolized | Compound metabolized | Compound metabolized | CCCC(=O)Nc1ccc(OCC(O)CNC(C)C)c(C(C)=O)c1 (stereo not given) [ACEBUTOLOL]
Compound metabolized | Compound NOT metabolized | Compound NOT metabolized | Compound metabolized | Compound NOT metabolized | Compound NOT metabolized | Compound NOT metabolized | Compound NOT metabolized | Compound NOT metabolized | Compound NOT metabolized | Compound NOT metabolized | Compound NOT metabolized | Compound NOT metabolized | Compound metabolized | Compound metabolized | Compound NOT metabolized | Compound NOT metabolized | Compound NOT metabolized | Compound NOT metabolized | Compound metabolized | C=CCc1ccccc1OCC(O)CNC(C)C (stereo not given) [ALPRENOLOL]
Compound metabolized | Compound NOT metabolized | Compound NOT metabolized | Compound NOT metabolized | Compound NOT metabolized | Compound metabolized | Compound NOT metabolized | Compound NOT metabolized | Compound metabolized | Compound NOT metabolized | Compound NOT metabolized | Compound NOT metabolized | Compound metabolized | Compound metabolized | Compound metabolized | Compound metabolized | Compound NOT metabolized | Compound NOT metabolized | Compound metabolized | Compound metabolized | CC(C)c1c(C(=O)Nc2ccccc2)c(-c2ccccc2)c(-c2ccc(F)cc2)n1CC[C@@H](O)C[C@@H](O)CC(=O)O [ATORVASTATIN]
Compound metabolized | Compound metabolized | Compound NOT metabolized | Compound metabolized | Compound NOT metabolized | Compound metabolized | Compound metabolized | Compound NOT metabolized | Compound metabolized | Compound metabolized | Compound metabolized | Compound metabolized | Compound metabolized | Compound metabolized | Compound metabolized | Compound metabolized | Compound metabolized | Compound metabolized | Compound metabolized | Compound metabolized | CCOC(=O)[C@H](CCc1ccccc1)N[C@H]1CCc2ccccc2N(CC(=O)O)C1=O [BENAZEPRIL]
Compound NOT metabolized | Compound NOT metabolized | Compound NOT metabolized | Compound metabolized | Compound NOT metabolized | Compound NOT metabolized | Compound NOT metabolized | Compound NOT metabolized | Compound NOT metabolized | Compound NOT metabolized | Compound NOT metabolized | Compound NOT metabolized | Compound NOT metabolized | Compound NOT metabolized | Compound NOT metabolized | Compound NOT metabolized | Compound NOT metabolized | Compound NOT metabolized | Compound NOT metabolized | Compound NOT metabolized | NS(=O)(=O)c1cc2c(cc1Cl)N=C(CSCc1ccccc1)NS2(=O)=O [BENZTHIAZIDE]
Compound NOT metabolized | Compound NOT metabolized | Compound NOT metabolized | Compound metabolized | Compound NOT metabolized | Compound NOT metabolized | Compound NOT metabolized | Compound NOT metabolized | Compound metabolized | Compound NOT metabolized | Compound NOT metabolized | Compound NOT metabolized | Compound NOT metabolized | Compound NOT metabolized | Compound metabolized | Compound metabolized | Compound metabolized | Compound NOT metabolized | Compound NOT metabolized | Compound metabolized | CC(C)NCC(O)COc1ccc(COCCOC(C)C)cc1.CC(C)NCC(O)COc1ccc(COCCOC(C)C)cc1.O=C(O)/C=C/C(=O)O (stereo not given) [BISOPROLOL FUMARATE]
Compound metabolized | Compound metabolized | Compound NOT metabolized | Compound metabolized | Compound metabolized | Compound metabolized | Compound metabolized | Compound NOT metabolized | Compound metabolized | Compound metabolized | Compound metabolized | Compound metabolized | Compound metabolized | Compound metabolized | Compound metabolized | Compound metabolized | Compound metabolized | Compound metabolized | Compound metabolized | Compound metabolized | CCCCCOC(=O)Nc1nc(=O)n([C@@H]2O[C@H](C)[C@@H](O)[C@H]2O)cc1F [CAPECITABINE]
